# Earlier results in US20100209332A1, “Nonaqueous Chlorine Dioxide-Generating Compositions and Methods Related Thereto” (BASF Catalysts LLC, priority 2009, published 2010).
# “And” between values parts separate entries of the source, which are not always exact repeats. Equal values may be shown once.
# Settings: sources: † clippercontrols.com URL, § Handbook of Chemistry and Physics, 52nd Ed.
row,"Dielectric Constant, at 18-25 deg C.",Compound
1,"2.5^†,§",CCCCCCCC/C=C\CCCCCCCC(=O)O [Oleic acid]
2,"17.1-17.8^†,§",CCCCO [Butyl alcohol]
3,3.2^†,CCCCCCCC(=O)O [Octanoic acid]
4,"32^†,§",CC(O)CO (stereo not shown) [Propylene glycol]
5,"42.5^†,§",OCC(O)CO [Glycerine]
6,18.3 and 20.1,CC(C)O [Isopropanol]

row,Compound,"Dielectric Constant, at 18-25 deg C."
1,O [Water],80.4 and 78.5
